The NIST ThermoML archive (doi:10.1016/j.fluid.2015.03.025)
± gives the expanded uncertainty stated by the source.

Test: xn = mol fraction of the nth substance listed
Conditions: 101 kPa, Liquid; for mass density: Buoyancy - hydrostatic balance; for electrical conductivity: Alternating current cell with electrodes; for viscosity: Capillary tube (Ostwald / Ubbelohde) method

`C[N+](C)(C)CCO.[Cl-]` [choline chloride] + OCCO gave a mass density (301.55 K, x1 = 0.5) of 1048.21 ± 0.72 kg/m3, an electrical conductivity (303.04 K, x1 = 0.5) of 0.838 ± 0.008 S/m and a mass density (307.95 K, x1 = 0.5) of 1046.1 ± 0.71 kg/m3. The electrical conductivity (308.15 K, x1 = 0.5) was 0.917 ± 0.008 S/m, the electrical conductivity (312.74 K, x1 = 0.5) was 0.986 ± 0.008 S/m and the mass density (313.15 K, x1 = 0.5) was 1044.28 ± 0.71 kg/m3. The viscosity (313.15 K, x1 = 0.5) was 25.3 ± 0.3 mPa·s, the electrical conductivity (317.51 K, x1 = 0.5) was 1.054 ± 0.008 S/m and the mass density (317.55 K, x1 = 0.5) was 1042.81 ± 0.71 kg/m3. It also gave a viscosity (318.15 K, x1 = 0.5) of 21.7 ± 0.2 mPa·s, a mass density (322.85 K, x1 = 0.5) of 1041.05 ± 0.71 kg/m3 and an electrical conductivity (323.15 K, x1 = 0.5) of 1.123 ± 0.008 S/m. It also gave a viscosity (323.15 K, x1 = 0.5) of 18.3 ± 0.2 mPa·s, a mass density (327.35 K, x1 = 0.5) of 1039.36 ± 0.7 kg/m3 and an electrical conductivity (328.15 K, x1 = 0.5) of 1.186 ± 0.008 S/m. It also gave a viscosity (328.15 K, x1 = 0.5) of 16.3 ± 0.2 mPa·s, an electrical conductivity (333.15 K, x1 = 0.5) of 1.264 ± 0.008 S/m and a viscosity (333.15 K, x1 = 0.5) of 14.4 ± 0.2 mPa·s. The mass density (333.25 K, x1 = 0.5) was 1036.72 ± 0.7 kg/m3, the mass density (338.15 K, x1 = 0.5) was 1034.68 ± 0.7 kg/m3 and the viscosity (338.15 K, x1 = 0.5) was 12.4 ± 0.1 mPa·s. The electrical conductivity (343.15 K, x1 = 0.5) was 1.414 ± 0.008 S/m, the viscosity (343.15 K, x1 = 0.5) was 10.5 ± 0.1 mPa·s and the mass density (347.85 K, x1 = 0.5) was 1030.78 ± 0.69 kg/m3. For the same compound, the viscosity (348.15 K, x1 = 0.5) was 9.6 ± 0.1 mPa·s, the electrical conductivity (353.15 K, x1 = 0.5) was 1.519 ± 0.008 S/m and the mass density (353.15 K, x1 = 0.5) was 1028.98 ± 0.69 kg/m3. It also gave a viscosity (353.15 K, x1 = 0.5) of 8.7 ± 0.1 mPa·s.
With `O=C(O)C(=O)O` [ethanedioic acid] + C[N+](C)(C)CCO.[Cl-] the mass density (300.15 K, x2 = 0.5) was 1160.6 ± 0.93 kg/m3, the electrical conductivity (303.05 K, x2 = 0.5) was 0.483 ± 0.008 S/m and the viscosity (303.15 K, x2 = 0.5) was 119.4 ± 2.1 mPa·s. The mass density (304.15 K, x2 = 0.5) was 1158.66 ± 0.93 kg/m3, the electrical conductivity (308.15 K, x2 = 0.5) was 0.56 ± 0.008 S/m and the viscosity (308.15 K, x2 = 0.5) was 101.1 ± 1.6 mPa·s. The electrical conductivity (312.75 K, x2 = 0.5) was 0.638 ± 0.008 S/m, the mass density (312.75 K, x2 = 0.5) was 1153.06 ± 0.92 kg/m3 and the viscosity (313.15 K, x2 = 0.5) was 82.7 ± 1.2 mPa·s. For the same compound, the electrical conductivity (317.55 K, x2 = 0.5) was 0.727 ± 0.008 S/m, the mass density (318.15 K, x2 = 0.5) was 1150.57 ± 0.91 kg/m3 and the viscosity (318.15 K, x2 = 0.5) was 60.2 ± 0.8 mPa·s. For the same compound, the electrical conductivity (323.15 K, x2 = 0.5) was 0.808 ± 0.008 S/m, the mass density (323.15 K, x2 = 0.5) was 1148.23 ± 0.91 kg/m3 and the viscosity (323.15 K, x2 = 0.5) was 43.7 ± 0.7 mPa·s. It also gave an electrical conductivity (328.15 K, x2 = 0.5) of 0.886 ± 0.008 S/m, a viscosity (328.15 K, x2 = 0.5) of 37 ± 0.7 mPa·s and a mass density (328.65 K, x2 = 0.5) of 1146.23 ± 0.91 kg/m3. It also gave an electrical conductivity (333.15 K, x2 = 0.5) of 0.981 ± 0.008 S/m, a viscosity (333.15 K, x2 = 0.5) of 31.9 ± 0.7 mPa·s and a mass density (334.15 K, x2 = 0.5) of 1142.66 ± 0.9 kg/m3. The electrical conductivity (343.15 K, x2 = 0.5) was 1.144 ± 0.008 S/m, the mass density (343.15 K, x2 = 0.5) was 1137.16 ± 0.89 kg/m3 and the viscosity (343.15 K, x2 = 0.5) was 20.1 ± 0.6 mPa·s. It also gave a viscosity (348.15 K, x2 = 0.5) of 16.8 ± 0.6 mPa·s, a mass density (348.65 K, x2 = 0.5) of 1135.11 ± 0.89 kg/m3 and an electrical conductivity (353.15 K, x2 = 0.5) of 1.288 ± 0.008 S/m. The mass density (353.15 K, x2 = 0.5) was 1133.19 ± 0.89 kg/m3 and the viscosity (353.15 K, x2 = 0.5) was 14.3 ± 0.6 mPa·s.
For `OCCN(CCO)CCO` [triethanolamine] + C[N+](C)(C)CCO.[Cl-], the electrical conductivity (312.75 K, x2 = 0.5) was 0.013 ± 0.008 S/m, the mass density (313.15 K, x2 = 0.5) was 1044.2 ± 0.34 kg/m3 and the viscosity (313.15 K, x2 = 0.5) was 83 ± 1 mPa·s. The electrical conductivity (317.55 K, x2 = 0.5) was 0.008 ± 0.008 S/m, the viscosity (318.15 K, x2 = 0.5) was 64.8 ± 0.8 mPa·s and the mass density (318.25 K, x2 = 0.5) was 1042.56 ± 0.34 kg/m3. The electrical conductivity (323.15 K, x2 = 0.5) was 0.008 ± 0.008 S/m, the viscosity (323.15 K, x2 = 0.5) was 44.9 ± 0.7 mPa·s and the mass density (323.25 K, x2 = 0.5) was 1040.96 ± 0.34 kg/m3. For the same compound, the electrical conductivity (328.15 K, x2 = 0.5) was 0.013 ± 0.008 S/m, the viscosity (328.15 K, x2 = 0.5) was 39.9 ± 0.7 mPa·s and the mass density (328.35 K, x2 = 0.5) was 1039.12 ± 0.34 kg/m3. It also gave an electrical conductivity (333.15 K, x2 = 0.5) of 0.007 ± 0.008 S/m, a viscosity (333.15 K, x2 = 0.5) of 33 ± 0.6 mPa·s and a mass density (333.25 K, x2 = 0.5) of 1037.41 ± 0.34 kg/m3. It also gave an electrical conductivity (338.15 K, x2 = 0.5) of 0.017 ± 0.008 S/m, a viscosity (338.15 K, x2 = 0.5) of 27.2 ± 0.6 mPa·s and a mass density (338.45 K, x2 = 0.5) of 1035.68 ± 0.34 kg/m3. For the same compound, the electrical conductivity (343.15 K, x2 = 0.5) was 0.018 ± 0.008 S/m, the viscosity (343.15 K, x2 = 0.5) was 21.3 ± 0.6 mPa·s and the mass density (343.25 K, x2 = 0.5) was 1034.09 ± 0.34 kg/m3. For the same compound, the electrical conductivity (348.15 K, x2 = 0.5) was 0.006 ± 0.008 S/m, the viscosity (348.15 K, x2 = 0.5) was 18.8 ± 0.6 mPa·s and the mass density (348.55 K, x2 = 0.5) was 1032.59 ± 0.33 kg/m3. The mass density (350.45 K, x2 = 0.5) was 1032.09 ± 0.33 kg/m3, the electrical conductivity (353.15 K, x2 = 0.5) was 0.008 ± 0.008 S/m and the mass density (353.15 K, x2 = 0.5) was 1031.28 ± 0.33 kg/m3.
